The source of these data is patent US5885814A, “Vaccine containing a serine protease” (priority 1993, dated 1999).

For series [1], the system named is DPP-like protease from F. hepatica E/S products. It counts as biochemical, Fasciola hepatica. The protocol: The assay mixture contained 200 μl of 20 μM substrate, 100 μl of enzyme solution and 900 μl of 50 mM Hepes, pH 6.8. The reaction was allowed to proceed at 37° C. and stopped by the addition of 200 μl of 1.7M acetic acid. The liberated AMC was measured in a fluorometer with excitation and emission wavelengths of 370 nm and 440 nm, respectively.
The effect of various metal ions on the hydrolytic activity of the enzyme was examined using both gly-pro-AMC and lys-ala-AMC as substrates in assays as described above.

The next series deals with Mammalian DPP2. Particulars: J. Biol. Chem. 263 (1988), 6613-6618; cited from earlier work.
The next series deals with Mammalian DPP4. Particulars: J. Biol. Chem. 263 (1988), 6613-6618; cited from earlier work.
Where [2] appears, read: substance 0.5 mM, substrate Gly-Pro-AMC.
[3] abbreviates: substance 0.5 mM, substrate Lys-Ala-AMC.
The mark [4] stands for this setting: substance 1 mM, substrate Gly-Pro-AMC.
[5] abbreviates: substance 1 mM, substrate Lys-Ala-AMC.
The mark [6] stands for this setting: gly-pro-AMC and lys-ala-AMC as substrates.
Setting [7] is: substance 5 mM, substrate Gly-Pro-AMC.
[8] abbreviates: concentration of 5 mM, gly-pro-AMC and lys-ala-AMC as substrates.
[9] abbreviates: substance 5 mM, substrate Lys-Ala-AMC.
The mark [10] stands for this setting: substance 5 μg/ml, substrate Gly-Pro-AMC.
The mark [11] stands for this setting: substance 5 μg/ml, substrate Lys-Ala-AMC.
[12] abbreviates: substance 0.02 mM, substrate Gly-Pro-AMC.
Setting [13] is: substance 0.02 mM, substrate Lys-Ala-AMC.
[14] abbreviates: substance 0.1 mM, substrate Gly-Pro-AMC.
[15] abbreviates: substance 0.1 mM, substrate Lys-Ala-AMC.

Read-outs that look alike come from different tables or passages of the source. Square brackets hold non-standard residues; d marks the D form. Peptide text beside a SMILES is read from it. * marks the point of attachment. Sta = CC(C)C[C@H](N)[C@@H](O)CC(=O)O; Isovaleryl = CC(C)CC(=O)*

As for `O[C@H](CS)[C@H](O)CS` (racemic) [DTT, dithiothreitol], in series [1], the “activation of the enzyme by thiol activating agents” value (shortened to “activation of the enzyme”) is reported as “no activation”. Besides, the “Activity remaining (%) Gly-Pro” value in series [1] (setting [2]) was determined as 77%; in series [1] (setting [4]) it was 90%. Further, the “Activity remaining (%) Lys-Ala” value in series [1] (setting [3]) was 61%; in series [1] (setting [5]), 62%.
In the case of `OCCS` [2-Mercaptoethanol], the “activation of the enzyme” value in series [1] is listed as “no activation”. Besides, the “Activity remaining (%) Gly-Pro” value in series [1] (setting [4]) came out at 87%. In series [1] (setting [5]), the “Activity remaining (%) Lys-Ala” value was 75%.
Turning to `N=C(N)c1ccccc1` [Benzamidine], the “effect on enzyme activity (in words)” value in series [1] (setting [6]) is listed as “inhibits the activity”. Moreover, the “Activity remaining (%) Gly-Pro” value stood at 77% in series [1] (setting [4]); 35% in series [1] (setting [7]); 23% in series [1] (substance 10 mM, substrate Gly-Pro-AMC).
`[Ca+2]` [Ca, calcium]: the “effect on enzyme activity (in words)” value in series [1] (setting [6]) is on record as “little effect on enzyme activity”. Moreover, the figures for the “Activity remaining (%) Gly-Pro” value in series [1] (setting [2]) and in series [1] (setting [4]) were 133% and 57%, respectively. The “Activity remaining (%) Lys-Ala” value is on record as 96% in series [1] (setting [3]) and 62% in series [1] (setting [5]).
As for `[Cd]` [Cd, cadmium], the “inhibition of enzyme activity” value in series [1] (setting [8]) is given as > 90%. In addition, the “Activity remaining (%) Gly-Pro” value came to 26% in series [1] (setting [4]) and 6% in series [1] (setting [7]). Besides, the “Activity remaining (%) Lys-Ala” value turned out to be 19% in series [1] (setting [5]) and 5% in series [1] (setting [9]).
For `[Co]` [Co, cobalt], in that order: > 90%, 20%, 4%, 28% and 6%.
`N[C@@H](CS)C(=O)O` [Cysteine, cysteine]: in series [1], the “activation of the enzyme” value is recorded as “no activation”. Also, the “Activity remaining (%) Gly-Pro” value in series [1] (setting [2]) and in series [1] (setting [4]) was 104% in each case. For the same molecule, the results for the “Activity remaining (%) Lys-Ala” value in series [1] (setting [3]) and in series [1] (setting [5]) were 112% and 105%, respectively.
Regarding `O=C(O)CN(CCN(CC(=O)O)CC(=O)O)CC(=O)O` [EDTA], the “effect on enzyme activity (in words)” value in series [1] is recorded as “not inhibited”. In series [1] (pH 6.8, 2000 µM), the “Activity remaining (%) Gly-Pro” value is 108% and the “Activity remaining (%) Lys-Ala” value is reported as 121%.
Regarding `[Fe]` [Fe, iron], the “inhibition of enzyme activity” value in series [1] (setting [8]) is given as > 90%. The “Activity remaining (%) Gly-Pro” value worked out at 6% in series [1] (setting [4]) and 2% in series [1] (setting [7]). The figures for the “Activity remaining (%) Lys-Ala” value in series [1] (setting [5]) and in series [1] (setting [9]) were 5% and 2%, respectively.
In the case of `[Mg+2]` [Mg, magnesium], in series [1] (setting [6]), the “effect on enzyme activity (in words)” value is “little effect on enzyme activity”. The “Activity remaining (%) Gly-Pro” value in series [1] (setting [2]) is 116%; in series [1] (setting [4]), 78%. Further, the entries for the “Activity remaining (%) Lys-Ala” value in series [1] (setting [3]) and in series [1] (setting [5]) were 105% and 76%, respectively.
For `[Mn+2]` [Mn, manganese], in that order: “little effect on enzyme activity”, 102%, 66%, 104% and 66%.
With `O=S(=O)(F)Cc1ccccc1` [PMSF, phenylmethyl sulfonyl fluoride], the “effect on enzyme activity (in words)” value in series [1] (setting [6]) is “inhibited”. In addition, the “Activity remaining (%) Gly-Pro” value in series [1] (substance 2 mM, substrate Gly-Pro-AMC) was 2%. In series [1] (substance 2 mM, substrate Lys-Ala-AMC), the “Activity remaining (%) Lys-Ala” value is reported as 3%.
Regarding `[Pb]` [Pb, lead], the “Activity remaining (%) Gly-Pro” value in series [1] (setting [4]) is reported as 109%; in series [1] (setting [7]) it was 70%. Besides, the entries for the “Activity remaining (%) Lys-Ala” value in series [1] (setting [5]) and in series [1] (setting [9]) were 103% and 82%, respectively.
Turning to `CC(C)CC(=O)N[C@H](C(=O)N[C@H](C(=O)N[C@@H](CC(C)C)[C@@H](O)CC(=O)N[C@@H](C)C(=O)N[C@@H](CC(C)C)[C@@H](O)CC(=O)O)C(C)C)C(C)C` [Pepstatin] (Isovaleryl-VV[Sta]A[Sta]-OH), the “effect on enzyme activity (in words)” value in series [1] (setting [6]) was “not inhibited”. In series [1] (setting [10]), the “Activity remaining (%) Gly-Pro” value came out at 108%. Moreover, the “Activity remaining (%) Lys-Ala” value in series [1] (setting [11]) was 92%.
In the case of `COc1ccc(C[C@H](N)C(=O)N[C@H]2[C@@H](O)[C@H](n3cnc4c(N(C)C)ncnc43)O[C@@H]2CO)cc1` [Puromycin, puromycin], in series [1] (setting [6]), the “effect on enzyme activity (in words)” value is “neither showed any inhibitory effect”. In addition, the “Activity remaining (%) Gly-Pro” value in series [1] (setting [12]) and in series [1] (setting [14]) was 100% in each case. Further, the “Activity remaining (%) Lys-Ala” value in series [1] (setting [13]) and in series [1] (setting [15]) was 100% in each case. In the series on Mammalian DPP2, the “inhibition of mammalian DPP2” value is on record as “will inhibit DPP2 only”.
`[Zn]` [Zn, zinc]: the “inhibition of enzyme activity” value in series [1] (1 mM concentration, gly-pro-AMC and lys-ala-AMC as substrates) is > 85%. Also, the “Activity remaining (%) Gly-Pro” value in series [1] (setting [2]) was determined as 80%; in series [1] (setting [4]), 3%. Besides, the “Activity remaining (%) Lys-Ala” value is reported as 37% in series [1] (setting [3]) and 14% in series [1] (setting [5]).
For aprotinin, in series [1] (setting [6]), the “effect on enzyme activity (in words)” value was “not inhibited”. Also, the “Activity remaining (%) Gly-Pro” value in series [1] (setting [10]) is listed as 109%. The “Activity remaining (%) Lys-Ala” value in series [1] (setting [11]) stood at 116%.
For bacitracin, in series [1] (setting [6]), the “effect on enzyme activity (in words)” value is listed as “neither showed any inhibitory effect”. Besides, the “Activity remaining (%) Gly-Pro” value in series [1] (setting [12]) and in series [1] (setting [14]) was 100% each time. Further, the “Activity remaining (%) Lys-Ala” value in series [1] (setting [13]) and in series [1] (setting [15]) was 100% each time. Also, the “inhibition of mammalian DPP4” value in the series on Mammalian DPP4 is on record as “inhibits DPP4 only”.
Turning to mercury [Hg], in series [1] (setting [8]), the “inhibition of enzyme activity” value is given as > 90%. For the same molecule, the “Activity remaining (%) Gly-Pro” value in series [1] (setting [4]) was 7%; in series [1] (setting [7]), 5%. Besides, the results for the “Activity remaining (%) Lys-Ala” value in series [1] (setting [5]) and in series [1] (setting [9]) were 4% and 2%, respectively.
